Data from PubChem BioAssay (NCI).
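Growth conditions: 96-well plates. Treatment: test compound, 48 hours, 5 concentrations. Analysis: linear interpolation between bracketing concentrations; unreached endpoints set to highest concentration. GI50 is the concentration that inhibits growth by half. Definition used: TGI = concentration required for complete inhibition of growth.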

Tests used:
Assay in all cases: NCI anticancer screen, dose series, 48 h
[1] = tested on: 786-0 renal
[2] = tested on: A498 renal
[3] = tested on: A549 NSCLC
[4] = tested on: ACHN renal
[5] = tested on: CAKI-1 renal
[6] = tested on: CCRF-CEM leukemia
[7] = tested on: COLO 205 colon
[8] = tested on: DLD-1 colon
[9] = tested on: DMS 114 small cell lung
[10] = tested on: DMS 273 small cell lung
[11] = tested on: EKVX NSCLC
[12] = tested on: HCC-2998 colon
[13] = tested on: HCT-116 colon
[14] = tested on: HCT-15 colon
[15] = tested on: HL-60(TB) leukemia
[16] = tested on: HOP-18 NSCLC
[17] = tested on: HOP-62 NSCLC
[18] = tested on: HOP-92 NSCLC
[19] = tested on: HT29 colon
[20] = tested on: IGROV1 ovarian
[21] = tested on: K-562 leukemia
[22] = tested on: KM12 colon
[23] = tested on: KM20L2 colon
[24] = tested on: LOX IMVI melanoma
[25] = tested on: LXFL 529 NSCLC
[26] = tested on: M14 melanoma
[27] = tested on: M19-MEL melanoma
[28] = tested on: MALME-3M melanoma
[29] = tested on: MOLT-4 leukemia
[30] = tested on: NCI-H226 lung
[31] = tested on: NCI-H23 lung
[32] = tested on: NCI-H460 lung
[33] = tested on: OVCAR-3 ovarian
[34] = tested on: OVCAR-4 ovarian
[35] = tested on: OVCAR-5 ovarian
[36] = tested on: OVCAR-8 ovarian
[37] = tested on: RPMI-8226 leukemia
[38] = tested on: SF-268 CNS
[39] = tested on: SF-295 CNS
[40] = tested on: SF-539 CNS
[41] = tested on: SK-MEL-2 melanoma
[42] = tested on: SK-MEL-28 melanoma
[43] = tested on: SK-MEL-5 melanoma
[44] = tested on: SK-OV-3 ovarian
[45] = tested on: SN12C renal
[46] = tested on: SNB-19 CNS
[47] = tested on: SNB-75 CNS
[48] = tested on: SNB-78 CNS
[49] = tested on: SR leukemia
[50] = tested on: SW-620 colon
[51] = tested on: TK-10 renal
[52] = tested on: U251 CNS
[53] = tested on: UACC-257 melanoma
[54] = tested on: UACC-62 melanoma
[55] = tested on: UO-31 renal
[56] = tested on: XF 498 CNS

Structure (SMILES): COc1cccc(/C=N/[N-]C(=O)c2ccncc2)c1[O-].[Ni+2].[OH3+]
- GI50 [1]: > 100 µM
- TGI [1]: > 100 µM
- GI50 [2]: > 100 µM
- TGI [2]: > 100 µM
- GI50 [3]: > 100 µM
- TGI [3]: > 100 µM
- GI50 [4]: > 100 µM
- TGI [4]: > 100 µM
- GI50 [5]: > 100 µM
- TGI [5]: > 100 µM
- GI50 [6]: > 100 µM
- TGI [6]: > 100 µM
- GI50 [7]: > 100 µM
- TGI [7]: > 100 µM
- GI50 [8]: > 100 µM
- TGI [8]: > 100 µM
- GI50 [9]: > 100 µM
- TGI [9]: > 100 µM
- GI50 [10]: > 100 µM
- TGI [10]: > 100 µM
- GI50 [11]: > 100 µM
- TGI [11]: > 100 µM
- GI50 [12]: > 100 µM
- TGI [12]: > 100 µM
- GI50 [13]: > 100 µM
- TGI [13]: > 100 µM
- GI50 [14]: > 100 µM
- TGI [14]: > 100 µM
- GI50 [15]: > 100 µM
- TGI [15]: > 100 µM
- GI50 [16]: > 100 µM
- TGI [16]: > 100 µM
- GI50 [17]: > 100 µM
- TGI [17]: > 100 µM
- GI50 [18]: > 100 µM
- TGI [18]: > 100 µM
- GI50 [19]: > 100 µM
- TGI [19]: > 100 µM
- GI50 [20]: > 100 µM
- TGI [20]: > 100 µM
- GI50 [21]: > 100 µM
- TGI [21]: > 100 µM
- GI50 [22]: > 100 µM
- TGI [22]: > 100 µM
- GI50 [23]: > 100 µM
- TGI [23]: > 100 µM
- GI50 [24]: > 100 µM
- TGI [24]: > 100 µM
- GI50 [25]: > 100 µM
- TGI [25]: > 100 µM
- GI50 [26]: > 100 µM
- TGI [26]: > 100 µM
- GI50 [27]: > 100 µM
- TGI [27]: > 100 µM
- GI50 [28]: > 100 µM
- TGI [28]: > 100 µM
- GI50 [29]: > 100 µM
- TGI [29]: > 100 µM
- GI50 [30]: > 100 µM
- TGI [30]: > 100 µM
- GI50 [31]: > 100 µM
- TGI [31]: > 100 µM
- GI50 [32]: > 100 µM
- TGI [32]: > 100 µM
- GI50 [33]: > 100 µM
- TGI [33]: > 100 µM
- GI50 [34]: > 100 µM
- TGI [34]: > 100 µM
- GI50 [35]: > 100 µM
- TGI [35]: > 100 µM
- GI50 [36]: > 100 µM
- TGI [36]: > 100 µM
- GI50 [37]: > 100 µM
- TGI [37]: > 100 µM
- GI50 [38]: > 100 µM
- TGI [38]: > 100 µM
- GI50 [39]: > 100 µM
- TGI [39]: > 100 µM
- GI50 [40]: > 100 µM
- TGI [40]: > 100 µM
- GI50 [41]: > 100 µM
- TGI [41]: > 100 µM
- GI50 [42]: > 100 µM
- TGI [42]: > 100 µM
- GI50 [43]: > 100 µM
- TGI [43]: > 100 µM
- GI50 [44]: > 100 µM
- TGI [44]: > 100 µM
- GI50 [45]: > 100 µM
- TGI [45]: > 100 µM
- GI50 [46]: > 100 µM
- TGI [46]: > 100 µM
- GI50 [47]: > 100 µM
- TGI [47]: > 100 µM
- GI50 [48]: > 100 µM
- TGI [48]: > 100 µM
- GI50 [49]: > 100 µM
- TGI [49]: > 100 µM
- GI50 [50]: > 100 µM
- TGI [50]: > 100 µM
- GI50 [51]: > 100 µM
- TGI [51]: > 100 µM
- GI50 [52]: > 100 µM
- TGI [52]: > 100 µM
- GI50 [53]: > 100 µM
- TGI [53]: > 100 µM
- GI50 [54]: > 100 µM
- TGI [54]: > 100 µM
- GI50 [55]: > 100 µM
- TGI [55]: > 100 µM
- GI50 [56]: > 100 µM
- TGI [56]: > 100 µM
